The values below come from US10981926B2 (Janssen Pharmaceutica NV, priority 2016, dated 2021).

SMILES strings stand for the structures.

Common to all, as to assay type: cell-based
Experiment [1] concerns the target T1, F876L mutant Androgen Receptor (AR-F876L) (Homo sapiens (Human), UniProt P10275, F877L). The experiment can be described thus: LNCaP-AR-F876L AG reporter assay (agonist mode). To be noted: for Emax: read-out: LNCaP-AR-F876L AG MAX % Stim; for EC50: pEC50 = −Log10(EC50 in Molar), read-out: LNCaP-AR-F876L AG pEC50 (converted). For orientation: Reporter assays use an easily measured gene product as a stand-in for the process of interest.

The target of experiment [2] is T2, wild-type Androgen Receptor (AR-wt) (Homo sapiens (Human), UniProt P10275). The experiment can be described thus: LNCaP-AR-wt AG reporter assay (agonist mode). To be noted: for Emax: read-out: LNCaP-AR-wt AG MAX % Stim; for EC50: pEC50 = −Log10(EC50 in Molar), read-out: LNCaP-AR-wt AG pEC50 (converted).
In experiment [3] the target is T2, wild-type Androgen Receptor (AR-wt). The experiment can be described thus: LNCaP-AR-wt ANT reporter assay (antagonist mode). To be noted: for Emax: read-out: LNCaP-AR-wt ANT MAX % Inh; for IC50: read-out: LNCaP-AR-wt ANT pIC50 (converted).
Experiment [4] deals with T1, F876L mutant Androgen Receptor (AR-F876L). The experiment can be described thus: LNCaP-AR-F876L ANT reporter assay (antagonist mode). To be noted: for Emax: read-out: LNCaP-AR-F876L ANT MAX % Inh; for IC50: read-out: LNCaP-AR-F876L ANT pIC50 (converted).
[5] abbreviates: agonist mode, maximum % stimulation over tested concentration range.
Setting [6] is: antagonist mode, maximum % inhibition of R1881 control response over tested concentration range.
[7] abbreviates: antagonist mode, pIC50 = −Log10(IC50 in Molar).
[8] abbreviates: maximum % stimulation (agonist response) over the tested concentration range.
Where [9] appears, read: maximum % inhibition of R1881 control response over the tested concentration range.

T2 sequence (P10275 whole entry): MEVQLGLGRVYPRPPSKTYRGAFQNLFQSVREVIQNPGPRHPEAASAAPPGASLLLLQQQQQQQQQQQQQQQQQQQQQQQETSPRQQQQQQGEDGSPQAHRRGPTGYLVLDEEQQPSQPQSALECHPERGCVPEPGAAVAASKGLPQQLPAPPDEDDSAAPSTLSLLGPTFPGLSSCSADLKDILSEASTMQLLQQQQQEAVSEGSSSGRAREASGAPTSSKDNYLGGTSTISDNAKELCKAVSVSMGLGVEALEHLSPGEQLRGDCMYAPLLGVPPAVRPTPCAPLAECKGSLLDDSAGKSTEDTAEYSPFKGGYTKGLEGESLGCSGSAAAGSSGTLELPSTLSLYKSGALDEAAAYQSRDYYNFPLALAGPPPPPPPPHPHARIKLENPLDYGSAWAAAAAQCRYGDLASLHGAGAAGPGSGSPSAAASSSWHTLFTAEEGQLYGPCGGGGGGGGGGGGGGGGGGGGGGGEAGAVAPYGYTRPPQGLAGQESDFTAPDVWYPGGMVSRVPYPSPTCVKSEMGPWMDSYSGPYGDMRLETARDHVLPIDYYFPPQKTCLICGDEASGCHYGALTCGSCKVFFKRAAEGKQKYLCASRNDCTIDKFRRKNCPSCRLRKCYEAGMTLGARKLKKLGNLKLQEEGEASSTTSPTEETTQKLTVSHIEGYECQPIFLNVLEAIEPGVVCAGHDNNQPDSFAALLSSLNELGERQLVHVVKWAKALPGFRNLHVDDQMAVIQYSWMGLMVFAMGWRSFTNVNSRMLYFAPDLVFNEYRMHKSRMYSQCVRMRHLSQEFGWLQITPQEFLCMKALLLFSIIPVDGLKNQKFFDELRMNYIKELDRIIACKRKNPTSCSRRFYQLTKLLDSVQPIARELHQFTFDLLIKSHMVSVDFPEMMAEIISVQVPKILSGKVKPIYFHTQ
T1 sequence (P10275 whole entry F877L): as the sequence (P10275 whole entry) above, with F877L counted along it

Regarding `CN1CCC(Cc2ccc(N3C(=S)N(c4cnc(C#N)c(C(F)(F)F)c4)C(=O)C34CCC4)cc2)CC1` [Cpd 237, 5-[8-[4-[(1-methyl-4-piperidyl)methyl]phenyl]-5-oxo-7-thioxo-6,8-diazaspiro[3.4]octan-6-yl]-3-(trifluoromethyl)pyridine-2-carbonitrile], the Emax in experiment [1] (setting [5]) was 0.1%; in experiment [2] (setting [5]) it was 0.4%; in experiment [3] (setting [6]), 104%; in experiment [4] (setting [6]), 100%. The EC50 in experiment [1] (agonist mode) and in experiment [2] (agonist mode) was greater than 15100 nM throughout. The IC50 was 832 nM in experiment [3] (setting [7]) and 468 nM in experiment [4] (setting [7]).

Consider `CC(=O)N1CCC(Cn2ncc3cc(N4C(=S)N(c5cnc(C#N)c(C(F)(F)F)c5)C(=O)C45CCC5)ccc32)CC1` [Cpd 124, 5-[8-[1-[(1-acetyl-4-piperidyl)methyl]indazol-5-yl]-5-oxo-7-thioxo-6,8-diazaspiro[3.4]octan-6-yl]-3-(trifluoromethyl)pyridine-2-carbonitrile], for which the EC50 in experiment [1] (agonist mode) and in experiment [2] (agonist mode) was greater than 15100 nM each time. Also, the Emax in experiment [1] (setting [8]) turned out to be 0.5%; in experiment [2] (setting [8]) it was 0.3%; in experiment [3] (setting [9]), 103%; in experiment [4] (setting [9]), 103%. Moreover, the IC50 in experiment [3] (setting [7]) is 115 nM; in experiment [4] (setting [7]), 39.8 nM.

In the case of `CN1C2CCC1CC(c1ccc(N3C(=S)N(c4cnc(C#N)c(C(F)(F)F)c4)C(=O)C34CCC4)cc1)C2` (stereo not shown) [Cpd 114, 5-(5-(4-(8-methyl-8-azabicyclo[3.2.1]octan-3-yl)phenyl)-8-oxo-6-thioxo-5,7-diazaspiro[3.4]octan-7-yl)-3-(trifluoromethyl)picolinonitrile], the EC50 in experiment [1] (agonist mode) and in experiment [2] (agonist mode) was greater than 15100 nM in each case. In addition, the Emax in experiment [1] (setting [8]) was 0.3%; in experiment [2] (setting [8]), -0.1%; in experiment [3] (setting [9]), 102%; in experiment [4] (setting [9]), 101%. Besides, the figures for the IC50 in experiment [3] (setting [7]) and in experiment [4] (setting [7]) were 2690 nM and 1020 nM, respectively.

With `N#Cc1ncc(N2C(=O)C3(CCC3)N(c3ccc(OC4CCNC5(CCC5)C4)nc3)C2=S)cc1C(F)(F)F` (racemic) [Cpd 188, (R,S)-5-[8-[6-(9-azaspiro[3.5]nonan-6-yloxy)-3-pyridyl]-5-oxo-7-thioxo-6,8-diazaspiro[3.4]octan-6-yl]-3-(trifluoromethyl)pyridine-2-carbonitrile], the Emax was 0.3% in experiment [1] (setting [5]), -0.2% in experiment [2] (setting [5]), 104% in experiment [3] (setting [6]) and 104% in experiment [4] (setting [6]). The EC50 in experiment [1] (agonist mode) and in experiment [2] (agonist mode) was greater than 15100 nM in each case. Further, the IC50 was 219 nM in experiment [3] (setting [7]) and 170 nM in experiment [4] (setting [7]).

In the case of `CN1CCN(Cc2ccc(N3C(=S)N(c4cnc(C#N)c(Cl)c4)C(=O)C34CCC4)cc2)CC1` [Cpd 219, 3-chloro-5-[8-[4-[(4-methylpiperazin-1-yl)methyl]phenyl]-5-oxo-7-thioxo-6,8-diazaspiro[3 4]octan-6-yl]pyridine-2-carbonitrile], the Emax in experiment [1] (setting [5]) was found to be 0.2%; in experiment [2] (setting [5]), 0.3%; in experiment [3] (setting [6]) it was 102%; in experiment [4] (setting [6]), 101%. The EC50 in experiment [1] (agonist mode) and in experiment [2] (agonist mode) was greater than 15100 nM throughout. Further, the IC50 in experiment [3] (setting [7]) was 372 nM; in experiment [4] (setting [7]), 347 nM.

As for `N#Cc1ncc(N2C(=O)C3(CCC3)N(c3ccc(O)nc3)C2=S)cc1C(F)(F)F` [Cpd 18, 5-[8-(6-hydroxy-3-pyridyl)-5-oxo-7-thioxo-6,8-diazaspiro[3.4]octan-6-yl]-3-(trifluoromethyl)pyridine-2-carbonitrile], the EC50 in experiment [1] (agonist mode) and in experiment [2] (agonist mode) was greater than 15100 nM each time. For the same molecule, the Emax in experiment [1] (setting [8]) was 0%; in experiment [2] (setting [8]), 0%; in experiment [3] (setting [9]) it was 93.5%; in experiment [4] (setting [9]) it was 99%. For the same molecule, in experiment [3] (setting [7]), the “LNCaP-AR-wt ANT pIC50” value stood at 5.65. Also, the “LNCaP-AR-F876L ANT pIC50” value in experiment [4] (setting [7]) turned out to be 6.00.

With `COc1cc(N2C(=O)C3(CCC3)N(c3ccc4nn(CCO)cc4c3)C2=S)cnc1C#N` [Cpd 164, 5-[8-[2-(2-hydroxyethyl)indazol-5-yl]-5-oxo-7-thioxo-6,8-diazaspiro[3.4]octan-6-yl]-3-methoxy-pyridine-2-carbonitrile], the EC50 in experiment [1] (agonist mode) and in experiment [2] (agonist mode) was greater than 15100 nM throughout. Also, the Emax in experiment [1] (setting [8]) was 0%; in experiment [2] (setting [8]), 0.3%; in experiment [3] (setting [9]), 102%; in experiment [4] (setting [9]) it was 101%. The IC50 is 537 nM in experiment [3] (setting [7]) and 295 nM in experiment [4] (setting [7]).

As for `N#Cc1ncc(N2C(=O)C3(CCC3)N(c3ccc4ccn(CCO)c4c3)C2=S)cc1C(F)(F)F` [Cpd 250, 5-[8-[1-(2-hydroxyethyl)indol-6-yl]-5-oxo-7-thioxo-6,8-diazaspiro[3.4]octan-6-yl]-3-(trifluoromethyl)pyridine-2-carbonitrile], the Emax in experiment [1] (setting [5]) was 0.1%; in experiment [2] (setting [5]), 0%; in experiment [3] (setting [6]), 0%; in experiment [4] (setting [6]), 101%. Further, the EC50 in experiment [1] (agonist mode) and in experiment [2] (agonist mode) was greater than 15100 nM in each case. Further, the IC50 in experiment [3] (setting [7]) was 1170 nM; in experiment [4] (setting [7]), 977 nM.

As to `CN1CCC[C@H](CNC(=O)c2ccc(N3C(=S)N(c4cnc(C#N)c(C(F)(F)F)c4)C(=O)C34CCC4)cc2F)C1` [Cpd 203, 4-[6-[6-cyano-5-(trifluoromethyl)-3-pyridyl]-5-oxo-7-thioxo-6,8-diazaspiro[3.4]octan-8-yl]-2-fluoro-N-[[(3R)-1-methyl-3-piperidyl]methyl]benzamide], the Emax in experiment [1] (setting [5]) is 0%; in experiment [2] (setting [5]), -0.1%; in experiment [3] (setting [6]), 102%; in experiment [4] (setting [6]) it was 100%. Besides, the EC50 in experiment [1] (agonist mode) and in experiment [2] (agonist mode) was greater than 15100 nM in each case. The IC50 in experiment [3] (setting [7]) is 891 nM; in experiment [4] (setting [7]), 562 nM.

As for `CN1CCCC(Oc2ccc(N3C(=S)N(c4cnc(C#N)c(C(F)(F)F)c4)C(=O)C34CCC4)cc2)CC1` (stereo not shown) [Cpd 19, 5-{8-[4-(1-methylazaperhydroepin-4-yloxy)phenyl]-5-oxo-7-thioxo-6,8-diazaspiro[3.4]oct-6-yl}-3-(trifluoromethyl)pyridine-2-carbonitrile], the EC50 in experiment [1] (agonist mode) and in experiment [2] (agonist mode) was greater than 15100 nM throughout. For the same molecule, the Emax in experiment [1] (setting [8]) is 1.6%; in experiment [2] (setting [8]), 0.3%; in experiment [3] (setting [9]) it was 101%; in experiment [4] (setting [9]), 101%. In addition, the IC50 in experiment [3] (setting [7]) was 661 nM; in experiment [4] (setting [7]) it was 200 nM.

Consider `CC(C)(C)OC(=O)N1CCC12CC(Oc1ccc(N3C(=S)N(c4cnc(C#N)c(C(F)(F)F)c4)C(=O)C34CCC4)cn1)C2` (stereo not shown) [Cpd 153, tert-butyl 6-[[5-[6-[6-cyano-5-(trifluoromethyl)-3-pyridyl]-5-oxo-7-thioxo-6,8-diazaspiro[3.4]octan-8-yl]-2-pyridyl]oxy]-3-azaspiro[3.3]heptane-3-carboxylate], for which the EC50 in experiment [1] (agonist mode) and in experiment [2] (agonist mode) was greater than 15100 nM throughout. Further, the Emax in experiment [1] (setting [8]) is -0.1%; in experiment [2] (setting [8]), 0.1%; in experiment [3] (setting [9]), 101%; in experiment [4] (setting [9]), 100%. For the same molecule, the results for the IC50 in experiment [3] (setting [7]) and in experiment [4] (setting [7]) were 398 nM and 339 nM, respectively.

In the case of `N#Cc1ncc(N2C(=O)C3(CCC3)N(c3ccc(OC4CCN(CC(O)CN)CC4)cc3)C2=S)cc1C(F)(F)F` (stereo not shown) [Cpd 157, 5-[8-[4-[[1-(3-amino-2-hydroxy-propyl)-4-piperidyl]oxy]phenyl]-5-oxo-7-thioxo-6,8-diazaspiro[3.4]octan-6-yl]-3-(trifluoromethyl)pyridine-2-carbonitrile], the EC50 in experiment [1] (agonist mode) and in experiment [2] (agonist mode) was greater than 15100 nM in each case. The Emax is 0% in experiment [1] (setting [8]), -0.2% in experiment [2] (setting [8]), 102% in experiment [3] (setting [9]) and 99.8% in experiment [4] (setting [9]). For the same molecule, the IC50 was 724 nM in experiment [3] (setting [7]) and 501 nM in experiment [4] (setting [7]).

As to `C=CCN1CCC(Oc2ccc(N3C(=S)N(c4cnc(C#N)c(C)c4)C(=O)C34CCC4)cn2)CC1` [Cpd 99, 5-[8-[6-[(1-allyl-4-piperidyl)oxy]-3-pyridyl]-5-oxo-7-thioxo-6,8-diazaspiro[3.4]octan-6-yl]-3-methyl-pyridine-2-carbonitrile], the EC50 in experiment [1] (agonist mode) and in experiment [2] (agonist mode) was greater than 15100 nM each time. In addition, the Emax in experiment [1] (setting [8]) was 0.2%; in experiment [2] (setting [8]), 0.5%; in experiment [3] (setting [9]), 101%; in experiment [4] (setting [9]) it was 99.7%. In addition, the IC50 in experiment [3] (setting [7]) is 174 nM; in experiment [4] (setting [7]) it was 72.4 nM.

For the molecule `COc1cc(N2C(=O)C3(CCC3)N(c3ccc4c(cnn4C4CCN(C)CC4)c3)C2=S)cnc1C#N` [Cpd 213, 3-methoxy-5-[8-[1-(1-methyl-4-piperidyl)indazol-5-yl]-5-oxo-7-thioxo-6,8-diazaspiro[3.4]octan-6-yl]pyridine-2-carbonitrile], the Emax in experiment [1] (setting [5]) amounted to 0.1%; in experiment [2] (setting [5]), 0.2%; in experiment [3] (setting [6]) it was 102%; in experiment [4] (setting [6]), 100%. Besides, the EC50 in experiment [1] (agonist mode) and in experiment [2] (agonist mode) was greater than 15100 nM in each case. Moreover, the IC50 in experiment [3] (setting [7]) is 550 nM; in experiment [4] (setting [7]), 282 nM.
